Assay results published in US10261079B2, “Method for determining kinetic profiles in drug discovery” (priority 2015, dated 2019).
Each block holds one compound with its values, some of them ahead of it.

How the values were obtained:
PI3Kdelta = target: T1, PI3Kdelta (Homo sapiens, UniProt O00329); assay: TR-FRET kinetic competitive binding, Binding Kinetic Profiling mode; settings: Tracer 314 5 nM, compound 250 nM to 0
T1 construct: purchased Carna Biosciences
Excerpt: X is time, expressed in min.
The present example illustrates the kinetic characterization of two different inhibitors against the same target by using the platform of the invention in the Binding Kinetic Profiling mode. […] The characterized Tracer^314 (Life Technologies) has been used as labeled ligand (tracer).
In order to determine the kinetic profile of these inhibitors (Kon, Koff, Kd and t1/2), experimental data were fitted to the “Kinetics of competitive binding”. This model describes the kinetic behavior of two compounds when compete for the binding to the same target.
The experiment is performed as described in Example 1 for the tracer characterization. The samples are prepared in the kinase buffer A at the same concentrations described in example 1 (PI3Kdelta at 0.5 nM and Eu-antiGST antibody at 2 nM). Control wells in the microplate with PI-103 inhibitor at 10 μM are also included to account for unspecific binding. […] These serial dilutions were prepared in a mother plate (at 2 times the assay concentration) and quickly dispensed to the analysis plate, being the last one disposed in the well the kinase PI3Kdelta.
The tracer concentration (L) is also constrained to the tracer concentration employed in the assay, i.e., 5 nM in the present example. […] The term t1/2 is calculated as −ln[0.5] divided by the K4 value.

CDK8/Cyclin C = CDK8/Cyclin C (Homo sapiens, UniProt P49336); assay: TR-FRET kinetic competitive binding, Kinetic Selectivity Profiling mode; settings: Tracer 236 10 nM, kinase 2 nM
Sequence of CDK8/Cyclin C (P49336 whole entry, species assumed): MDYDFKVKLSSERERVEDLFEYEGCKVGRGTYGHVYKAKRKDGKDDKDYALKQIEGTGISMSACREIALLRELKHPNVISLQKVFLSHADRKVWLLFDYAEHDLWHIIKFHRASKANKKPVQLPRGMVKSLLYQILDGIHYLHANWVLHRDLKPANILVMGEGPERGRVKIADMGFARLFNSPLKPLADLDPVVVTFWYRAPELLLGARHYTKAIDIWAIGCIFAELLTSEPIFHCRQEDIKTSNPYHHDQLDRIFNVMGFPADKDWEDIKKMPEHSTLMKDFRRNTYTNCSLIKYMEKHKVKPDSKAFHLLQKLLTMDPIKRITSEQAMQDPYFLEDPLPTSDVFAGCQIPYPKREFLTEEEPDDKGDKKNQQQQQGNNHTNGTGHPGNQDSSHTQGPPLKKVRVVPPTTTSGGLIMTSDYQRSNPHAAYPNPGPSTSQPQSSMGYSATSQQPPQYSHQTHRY
Sequence of CDK8/Cyclin C (P24863 whole entry partner, species assumed): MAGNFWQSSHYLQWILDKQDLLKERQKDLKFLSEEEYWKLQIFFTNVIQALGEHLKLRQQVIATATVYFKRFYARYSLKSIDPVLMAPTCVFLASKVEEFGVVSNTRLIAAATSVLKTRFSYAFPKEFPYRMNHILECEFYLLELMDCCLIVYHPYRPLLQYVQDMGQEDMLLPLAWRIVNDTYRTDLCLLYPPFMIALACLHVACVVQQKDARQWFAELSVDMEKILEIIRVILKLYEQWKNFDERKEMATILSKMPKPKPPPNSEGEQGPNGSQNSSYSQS
Excerpt: SQRT is the mathematical abbreviation for squared root. X is time, expressed in min.

T1 sequence (O00329 whole entry): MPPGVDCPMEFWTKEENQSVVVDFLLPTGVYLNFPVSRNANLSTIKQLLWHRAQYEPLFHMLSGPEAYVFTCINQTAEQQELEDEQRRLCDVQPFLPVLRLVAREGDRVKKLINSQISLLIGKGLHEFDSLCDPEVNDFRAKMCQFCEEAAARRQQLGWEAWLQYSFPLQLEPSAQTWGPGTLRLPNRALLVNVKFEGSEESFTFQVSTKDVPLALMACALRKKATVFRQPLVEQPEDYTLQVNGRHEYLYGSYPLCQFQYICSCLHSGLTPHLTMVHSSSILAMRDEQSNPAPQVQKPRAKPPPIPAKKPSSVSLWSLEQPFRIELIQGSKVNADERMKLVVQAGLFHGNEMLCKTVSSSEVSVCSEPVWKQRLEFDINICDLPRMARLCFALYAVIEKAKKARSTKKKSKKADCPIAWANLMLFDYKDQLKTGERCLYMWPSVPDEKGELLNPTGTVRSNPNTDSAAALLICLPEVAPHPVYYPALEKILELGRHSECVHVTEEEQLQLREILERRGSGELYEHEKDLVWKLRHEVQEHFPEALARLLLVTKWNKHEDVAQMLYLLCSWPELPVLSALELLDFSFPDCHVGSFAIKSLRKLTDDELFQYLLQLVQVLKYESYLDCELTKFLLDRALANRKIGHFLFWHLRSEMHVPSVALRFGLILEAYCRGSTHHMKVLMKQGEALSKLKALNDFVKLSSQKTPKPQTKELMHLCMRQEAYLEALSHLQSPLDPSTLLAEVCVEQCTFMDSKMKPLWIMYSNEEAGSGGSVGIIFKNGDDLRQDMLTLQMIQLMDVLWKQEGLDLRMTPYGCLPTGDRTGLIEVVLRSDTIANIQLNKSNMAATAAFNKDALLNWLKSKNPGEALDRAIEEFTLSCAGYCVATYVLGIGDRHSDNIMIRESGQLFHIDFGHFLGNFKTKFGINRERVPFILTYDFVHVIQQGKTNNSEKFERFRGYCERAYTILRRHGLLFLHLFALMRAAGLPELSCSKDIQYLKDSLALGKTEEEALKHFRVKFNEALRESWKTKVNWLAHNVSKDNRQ
T1 sequence (P27986 whole entry partner): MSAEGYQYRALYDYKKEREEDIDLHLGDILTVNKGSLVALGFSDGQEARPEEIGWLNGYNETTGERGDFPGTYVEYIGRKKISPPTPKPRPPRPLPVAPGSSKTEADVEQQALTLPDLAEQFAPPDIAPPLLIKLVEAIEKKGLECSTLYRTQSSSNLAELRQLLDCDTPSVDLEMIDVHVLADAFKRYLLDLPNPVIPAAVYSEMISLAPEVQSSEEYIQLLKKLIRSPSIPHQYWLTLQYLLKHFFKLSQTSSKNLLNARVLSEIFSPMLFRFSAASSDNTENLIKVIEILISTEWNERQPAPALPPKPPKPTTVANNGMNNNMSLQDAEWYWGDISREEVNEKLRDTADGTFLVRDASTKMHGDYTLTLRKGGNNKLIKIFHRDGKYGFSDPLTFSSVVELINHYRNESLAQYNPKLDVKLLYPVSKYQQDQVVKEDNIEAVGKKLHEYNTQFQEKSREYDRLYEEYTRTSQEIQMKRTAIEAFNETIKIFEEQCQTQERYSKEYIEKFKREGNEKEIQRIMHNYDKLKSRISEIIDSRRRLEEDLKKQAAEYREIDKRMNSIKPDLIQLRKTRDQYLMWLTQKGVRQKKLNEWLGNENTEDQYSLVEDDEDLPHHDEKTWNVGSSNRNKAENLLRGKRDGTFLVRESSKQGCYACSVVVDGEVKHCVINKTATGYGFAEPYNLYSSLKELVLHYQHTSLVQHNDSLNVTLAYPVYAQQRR

dissociation from the target (PI3Kdelta): mili-seconds
SMILES: Cn1c(=O)n(-c2ccc(C(C)(C)C#N)cc2)c2c3cc(-c4cnc5ccccc5c4)ccc3ncc21 [BEZ235]

SMILES: CN[C@@H]1C[C@H]2O[C@@](C)([C@@H]1OC)n1c3ccccc3c3c4c(c5c6ccccc6n2c5c31)C(=O)NC4 [Staurosporine]
duration of the interaction with CDK8 (CDK8/Cyclin C): 20 min

SMILES: COC[C@H]1OC(=O)c2coc3c2[C@@]1(C)C1=C(C3=O)[C@@H]2CCC(=O)[C@@]2(C)C[C@H]1OC(C)=O [Wortmanine]
dissociative half-life of the complex with PI3Kdelta (t1/2) (PI3Kdelta): around 300 min
